Experimental findings from patent US20120301468A1, “ANTI-MN ANTIBODIES AND METHODS OF USING SAME” (BAYER HEALTHCARE LLC, priority 2005, published 2012) are described below.

Non-standard residues stand in square brackets, D forms with d. Residues, ends and D or L forms follow the SMILES beside them. *: point of attachment. Dolaproine = CO[C@@H]([C@@H]1CCCN1)[C@@H](C)C(=O)O; Dil = CC[C@H](C)[C@H](NC)[C@@H](CC(=O)O)OC; X1 = C[C@@H](N*)[C@@H](O)c1ccccc1; NMeV = CN[C@H](C(=O)O)C(C)C

For series [1], the system named is HCT-15 multi-drug resistant (P-gp) CRC xenograft. Nature of the series: HCT-15 multi-drug resistant xenograft model. The series is classed as in vivo, NCr nu/nu mice. Particulars: HCT-15 MDR model. The protocol: To examine the effect of 3ee9/MMAE in a multi-drug resistance model, female NCr nu/nu mice were implanted subcutaneously (s.c.) with 5×10^6 HCT-15 cells. HCT-15 is a multi-drug resistant (MDR) line that over-expresses P-glycoprotein (P-gp). […] 3ee9/MMAE, Taxol, and Gemcitabine were administered when mice had established tumors with mean weight of ˜150 mg. Gemcitabine, a pyrimidine analog that is not a P-gp substrate was used as a positive control.

Series [2] addresses T1, MN (Homo sapiens, UniProt Q16790). The experiment in a line: Surface plasmon resonance (BIAcore) binding to MN protein. Set-up: The MN protein represents the entire extra-cellular domain of the protein with a C-terminal histag for purification; His tag (C); made in house; host or cells: HKB-11 (mammalian cell line). Particulars: read-out: kD for purified MN protein. As to the method: The binding interactions between MN protein and the antibodies of this invention were analyzed using surface plasmon resonance technology on a BIAcore 3000 instrument (BIAcore, Uppsala, Sweden). For the binding of full-length IgGs (1e4, 1aa1, and 3ee9), goat anti-human IgG Fc was covalently coupled to the CM5 biosensor chip at high density using a standard amine coupling kit (BIAcore, Uppsala, Sweden). A capture assay was then used to bind these IgG to the anti-human IgG Fc-immobilized surface, aiming for a 300 response unit BIAcore signal. […] After ligand binding, the flow rate was then increased to 25 μl/min and various concentrations of MN analyte (e.g., range of 50 nM to 1 nM) were flowed over the surface for 10 minutes such that the association phase could be monitored. […] The binding of Fabs to MN was similarly determined except that an anti-human-Fab IgG was immobilized onto the chip and used to capture the Fabs prior to the assessment of MN binding.
Binding interactions between HKB11-expressed human MN protein and human full-length anti-MN MAbs were analyzed using surface plasmon resonance technology on a BIAcore 3000 instrument (BIAcore, Uppsala, Sweden). […] After ligand binding, flow rate was increased to 25 ul/min and MN analyte (50 nM to 1 nM) was flowed over the surface for 10 min such that the association phase could be monitored. […]
In general terms: Surface plasmon resonance follows binding to a sensor surface in real time, without labels.

In series [3] the target is T1, MN. Nature of the series: Immunoprecipitation of biotinylated cell surface proteins. The series is classed as binding. The following applies: biotin-labeled lysates of MN+ (Pc3 mm2) and MN− (DLD-1) cell lines. Set-up: incubated with cell lysates of MN+ (Pc3 mm2) and MN− (DLD-1) cell lines that had been selectively labeled with biotin; endogenous in cells; host or cells: PC-3 mm2 (MN+); DLD-1 as the MN- control. As to the method: To further explore specificity, various candidate antibodies including the antibody portion of 3ee9/MMAE (3ee9) and the reference antibody G250 were incubated with cell lysates of MN+ (Pc3 mm2) and MN− (DLD-1) cell lines that had been selectively labeled with biotin. Complexes between the antibodies and cellular proteins were immuno-precipitated and the co-precipitated antigens visualized using immunoblots developed with enzyme-linked streptavidin.

Series [4] relates to HT-29 human CRC xenograft. The experiment in a line: HT-29 subcutaneous xenograft model. The series is classed as in vivo, athymic NCr (nu/nu) mice. Particulars: HT-29; for % Inhibition (1-T/D)*100 (Day 18) / Percent Regressions: Q4D × 3. The protocol:
When tumors reached an average size of ˜120 mg (5 days), treatment was initiated. […] In addition, MMAE was assessed as a free drug at a dose of 0.1, 0.2 and 1 mg/kg. The 0.1 and 0.2 mg/Kg doses of MMAE represent equivalent amounts of this drug to those present on 5 and 10 mg/Kg 3ee9/MMAE respectively.
Anti-tumor effect of 3ee9/MMAE was also assessed in varying schedules, i.e., once a week dosing for total of two doses (Q7Dx2, FIG. 20) and a single dose at the time of staging (Q1Dx1, FIG. 21). In both schedules, 3ee9/MMAE was dosed at 0.625, 1.25, 2.5, 5 and 10 mg/kg.

In a further series the test system is Colo-205 CRC xenograft. Nature of the series: Colo-205 subcutaneous xenograft model. The following applies: Colo-205. From the text:
The in vivo anti-tumor effect of 3ee9/MMAE was examined in 6 different human xenograft tumor models. These models were established through subcutaneous implantation of human tumor cells into female athymic NCr (nu/nu) mice (Taconic, N.Y.). The human tumor xenograft models evaluated included the MaTu human mammary carcinoma model, the HT-29 and Colo-205 human colo-rectal carcinoma (CRC) models, PC3MM2 prostate carcinoma model, the HCT-15 multi-drug resistant (P-gp) CRC model, and the MiaPaCa2 human pancreatic model. PBS was used as a vehicle, and dosing solutions were prepared fresh daily. The dosing volume was 0.1 mL/10 g (10 mL/kg).
The length and width of each tumor were measured using an electronic caliper 2-3 times per week, and tumor weights (mg) were calculated based on the formula of [length (mm)×width (mm)^2]/2. All data, including daily observations, obtained throughout the course of the study were documented in Anti-tumor Data Acquisition System (ADAS). […] Tumor growth inhibition (TGI) was calculated as (1-T/C)×100, where T=final tumor weights from a treated group after the last dose, and C=final tumor weights from the control group after the last dose. In addition, anti-tumor efficacy was measured as the incidence of responses (or responders or regressions) defined as tumors with ≦50% of their initial size. A minimum duration of 7 days is required for a response to be considered durable.
The anti-tumor activity of 3ee9/MMAE was next evaluated against human prostate (PC-3 mm2) and CRC (Colo-205) tumor xenografts. Female NCr nu/nu mice were implanted subcutaneously (s.c.) either with 5×10^6 PC3 mm2 or Colo-205 cells. Treatment was initiated when tumors were of an average size of approximately 125-150 mg. The general health of mice was monitored and recorded daily. Tumor dimensions and body weights were recorded twice a week starting with the first day of treatment.
In the PC3 mm2 and Colo-205 studies, 3ee9/MMAE was administered intravenously (i.v.) once every 4th day for a total of 3 injections (Q4Dx3) at doses of 1, 3, 10 and 30 mg/kg and 1.25, 2.5, 5 and 10 mg/kg, respectively.
The feasibility of using 3ee9/MMAE in conjunction with other cancer chemotherapeutic agents was investigated. Xeloda® is used as first line treatment of patients with metastatic colorectal carcinoma. The activity and tolerability of combined therapy using 3ee9/MMAE and Xeloda® was evaluated. 3ee9/MMAE was administered i.v. on a Q4Dx3 schedule and at dose levels of 1.25, 2.5 and 10 mg/kg. Xeloda® was administered orally once daily for 9 days at dose levels of 250 and 500 mg/kg.

As for `Nc1ccn([C@@H]2O[C@H](CO)[C@@H](O)C2(F)F)c(=O)n1` [Gemcitabine], the anti-tumor activity result in series [1] (120 mg/kg, i.p., QDx10) was “highly active”.
Consider “G250: MN antibody G250, a humanized IgG1 antibody, (Wilex), used as a reference [reference compound]”, for which the Kd – broadly, a measure of binding affinity in units of concentration – in the series with MN [2] turned out to be 5.3 nM. Also, the “co-immunoprecipitated proteins (specificity)” value in the series with MN [3] was “selectively bound and co-immunoprecipitated with a single band of the same size as MN”.
For `CC[C@H](C)[C@@H]([C@@H](CC(=O)N1CCC[C@H]1[C@H](OC)[C@@H](C)C(=O)N[C@H](C)[C@@H](O)c1ccccc1)OC)N(C)C(=O)[C@@H](NC(=O)[C@@H](NC)C(C)C)C(C)C` [MMAE, Monomethylauristatin E, reference compound] (H-[NMeV]V[Dil][Dolaproine]-X1), the “% Inhibition (1-T/D)*100 (Day 18)” value in series [4] (0.1 mg/kg) is reported as 27%; in series [4] (0.2 mg/kg) it was 60%; in series [4] (1 mg/kg), “Toxic”. Further, the “Percent Regressions” value in series [4] (0.1 mg/kg) and in series [4] (0.2 mg/kg) was 0% in each case. Moreover, the tumor responses entry in series [4] (free drug) is given as “did not induce any tumor responses”. Besides, the “effect in inhibiting growth” value in series [4] (free drug 0.1 mg/kg) is on record as “no significant effect”. In addition, the TGI (usually the reduction of tumour growth relative to the control group) in series [4] (free drug 0.2 mg/kg) is recorded as 60%. Further, the lethality in series [4] (free drug 1 mg/kg) turned out to be 50%. For the same molecule, the tolerability result in series [4] (free drug 1 mg/kg) is given as “considered toxic”; in series [4] (free drug 0.1 and 0.2 mg/kg) it was “well tolerated with non-significant, minimal weight loss”.
With `CCCCCOC(=O)Nc1nc(=O)n([C@@H]2O[C@H](C)[C@@H](O)[C@H]2O)cc1F` [Xeloda, reference compound], in the series with Colo-205 CRC xenograft (250 mg/kg/inj Q1D × 9 PO), the “% Inhibition (T/C) (d 17)” value came out at 78%, the “% Regressions” value is 0% and the “% Weight Loss (d 17)” value is given as −0.5%. In the series on Colo-205 CRC xenograft (500 mg/kg/inj Q1D × 9 PO), the “% Inhibition (T/C) (d 17)” value came to 86.1%, the “% Regressions” value is 0% and the “% Weight Loss (d 17)” value is on record as −5.6%. For the same molecule, the tumour growth inhibition (TGI) in the series with Colo-205 CRC xenograft (alone 250 mg/kg orally once daily for 9 days) came to 78%. Moreover, in the series on Colo-205 CRC xenograft (alone 500 mg/kg orally once daily for 9 days), the TGI was 86%. The animals showing regressions entry in the series with Colo-205 CRC xenograft (both dose groups (250 and 500 mg/kg)) was “zero”.
Consider `CC(=O)O[C@H]1C(=O)[C@@]2(C)[C@H]([C@H](OC(=O)c3ccccc3)[C@]3(O)C[C@H](OC(=O)[C@H](O)[C@@H](NC(=O)c4ccccc4)c4ccccc4)C(C)=C1C3(C)C)[C@]1(OC(C)=O)CO[C@@H]1C[C@@H]2O` [Taxol®], for which, in series [1], the anti-tumor effect result is on record as “failed to produce any significant anti-tumor effect”.
